Data taken from patent US20090264401A1, “SUBSTITUTED PYRIMIDIN-5-CARBOXAMIDES 281” (AstraZeneca AB, priority 2008, published 2009).

Target: T1, human 11βHSD1 enzyme (Homo sapiens, UniProt P28845)
T1 construct: baculovirus expressed N terminal 6-His tagged full length human 11βHSD1 enzyme; 6-His (N); made in house
Test: 11βHSD1 cortisone to cortisol conversion, competitive HTRF assay
Type: biochemical
Conditions: human 11-βHSD; test concentration of 30 μM of compound
Experimental: The evaluation of compounds described herein was carried out using a baculovirus expressed N terminal 6-His tagged full length human 11βHSD1 enzyme(*1). The enzyme was purified from a detergent solubilised cell lysate, using a copper chelate column. Inhibitors of 11βHSD1 reduce the conversion of cortisone to cortisol, which is identified by an increase in signal, in the above assay.
Compounds to be tested were dissolved in dimethyl sulphoxide (DMSO) to 10 mM and diluted further in assay buffer containing 1% DMSO to 10 fold the final assay concentration. Diluted compounds were then plated into black 384 well plates (Matrix, Hudson N.H., USA).
Fluorescence at 665 nm and 620 nm was measured and the 665 nm:620 nm ratio calculated using an Envision plate reader.

T1 sequence (P28845 whole entry): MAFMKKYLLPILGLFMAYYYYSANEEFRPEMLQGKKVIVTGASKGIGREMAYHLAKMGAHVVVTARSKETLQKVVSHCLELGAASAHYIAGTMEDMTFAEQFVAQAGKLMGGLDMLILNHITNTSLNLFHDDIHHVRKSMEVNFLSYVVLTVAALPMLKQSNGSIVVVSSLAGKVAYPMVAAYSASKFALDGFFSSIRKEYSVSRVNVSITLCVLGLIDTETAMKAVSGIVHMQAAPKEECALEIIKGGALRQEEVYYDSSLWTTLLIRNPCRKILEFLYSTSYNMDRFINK

Compound | inhibition at 30 µM [%]
CS(=O)(=O)N1CCN(c2ncc(C(=O)N[C@H]3C4CC5CC3C[C@@](O)(C5)C4)c(C3CC3)n2)CC1 [Example 70, 4-cyclopropyl-N-[(2r,5s)-5-hydroxyadamantan-2-yl]-2-(4-methylsulfonylpiperazin-1-yl)pyrimidine-5-carboxamide] | 98
O=C(N[C@H]1C2CC3CC1C[C@@](O)(C3)C2)c1cnc(NC2CC2)nc1C1CC1 [Example 56, 4-cyclopropyl-2-(cyclopropylamino)-N-[(2r,5s)-5-hydroxyadamantan-2-yl]pyrimidine-5-carboxamide] | 90.2
O=C(N[C@H]1C2CC3CC1C[C@@](O)(C3)C2)c1cnc(OC2CCCC2)nc1C1CCC1 [Example 106, 4-cyclobutyl-2-(cyclopentyloxy)-N-[(2r,5s)-5-hydroxyadamantan-2-yl]pyrimidine-5-carboxamide] | 101
CN(C)c1ncc(C(=O)N[C@H]2C3CC4CC2C[C@@](O)(C4)C3)c(C2CCCC2)n1 [Example 133, 4-cyclopentyl-2-dimethylamino-N-[(2r,5s)-5-hydroxyadamantan-2-yl]pyrimidine-5-carboxamide] | 94
O=C(N[C@H]1C2CC3CC1C[C@@](O)(C3)C2)c1cnc(N2CC[S+]([O-])CC2)nc1C1CCCCC1 [Example 197, 4-Cyclohexyl-N-[(2r,5 s)-5-hydroxyadamantan-2-yl]-2-(1-oxidothiomorpholin-4-yl)pyrimidine-5-carboxamide] | 97.8
O=C(N[C@H]1C2CC3CC1C[C@@](O)(C3)C2)c1cnc(NC2CCS(=O)(=O)CC2)nc1C1CC1 [Example 68, 4-cyclopropyl-2-[(1,1-dioxidotetrahydro-2H-thiopyran-4-yl)amino]-N-[(2r,5s)-5-hydroxyadamantan-2-yl]pyrimidine-5-carboxamide] | 98.3
C[C@@H]1CN(c2ncc(C(=O)N[C@H]3C4CC5CC3C[C@@](O)(C5)C4)c(C3CC3)n2)C[C@@H](C)O1 [Example 63, 4-cyclopropyl-2-[(2R,6R)-2,6-dimethylmorpholin-4-yl]-N-[(2r,5s)-5-hydroxyadamantan-2-yl]pyrimidine-5-carboxamide] | 92.7
O=C(N[C@H]1C2CC3CC1C[C@@](O)(C3)C2)c1cnc(N2CCCS(=O)(=O)CC2)nc1C1CC1 [Example 45, 4-Cyclopropyl-2-(1,1-dioxo-1,4-thiazepan-4-yl)-N-[(2r,5s)-5-hydroxyadamantan-2-yl]pyrimidine-5-carboxamide] | 98.5
CC(C)Oc1ncc(C(=O)N[C@H]2C3CC4CC2C[C@@](O)(C4)C3)c([C@H]2CCCO2)n1 [Example 176] | 97.9
C[C@@H]1CN(c2ncc(C(=O)N3CCC(c4cccnc4)C3)c(C3CC3)n2)C[C@H](C)O1 (stereo partly drawn) [Example 81, (4-cyclopropyl-2-((2S,6R)-2,6-dimethylmorpholino)pyrimidin-5-yl)(3-(pyridin-3-yl)pyrrolidin-1-yl)methanone] | 100
O=C(N[C@H]1C2CC3CC1C[C@@](O)(C3)C2)c1cnc(NCCO)nc1C1CC1 [Example 69, 4-cyclopropyl-N-[(2r,5s)-5-hydroxyadamantan-2-yl]-2-[(2-hydroxyethyl)amino]pyrimidine-5-carboxamide] | 102
CC(C)(C)c1nc(N2CCOCC2)ncc1C(=O)NC1C2CC3CC(C2)CC1C3 (centres unmarked) [Example 14, N-(2-Adamantyl)-4-tert-butyl-2-morpholin-4-ylpyrimidine-5-carboxamide] | 108
CN(C)c1ncc(C(=O)N[C@H]2C3CC4CC2C[C@@](O)(C4)C3)c(N(C)C)n1 [Example 199, 2,4-bis(dimethylamino)-N-[(2r,5s)-5-hydroxyadamantan-2-yl]pyrimidine-5-carboxamide] | 96.8
CCOc1nc(OC2CCC2)ncc1C(=O)N[C@H]1C2CC3CC1C[C@@](O)(C3)C2 [Example 213, 2-(cyclobutyloxy)-4-ethoxy-N-[(2r,5s)-5-hydroxytricyclo[3.3.1.13,7]dec-2-yl]pyrimidine-5-carboxamide] | 107
CC(C)Oc1ncc(C(=O)N[C@H]2C3CC4CC2C[C@@](O)(C4)C3)c([C@@H]2CCCO2)n1 [Example 181] | 95
O=C(N[C@H]1C2CC3CC1C[C@@](O)(C3)C2)c1cnc(NC2CCCC2)nc1C1CCC1 [Example 102, 4-cyclobutyl-2-(cyclopentylamino)-N-[(2r,5s)-5-hydroxyadamantan-2-yl]pyrimidine-5-carboxamide] | 93.8
O=C(N[C@H]1C2CC3CC1C[C@@](O)(C3)C2)c1cnc(OC2CCC2)nc1C1CCCC1 [Example 111, 2-cyclobutyloxy-4-cyclopentyl-N-[(2r,5s)-5-hydroxyadamantan-2-yl]pyrimidine-5-carboxamide] | 108
O=C(N[C@H]1C2CC3CC1C[C@@](O)(C3)C2)c1cnc(N2C[C@@H]3C[C@H]2CO3)nc1C1CC1 [Example 58, 4-cyclopropyl-N-[(2r,5s)-5-hydroxyadamantan-2-yl]-2-[(1S,4S)-2-oxa-5-azabicyclo[2.2.1]hept-5-yl]pyrimidine-5-carboxamide] | 99.6
CSc1ncc(C(=O)N[C@H]2C3CC4CC2C[C@@](O)(C4)C3)c([C@H]2CCCO2)n1 [Example 166, N-[(2r,5s)-5-hydroxyadamantan-2-yl]-2-methylsulfanyl-4-[(2R)-oxolan-2-yl]pyrimidine-5-carboxamide] | 102
O=C(N[C@H]1C2CC3CC1C[C@@](O)(C3)C2)c1cnc(NC2CC2)nc1C1CCCO1 (some centres unmarked) [Example 160, 2-(cyclopropylamino)-N-[(2r,5s)-5-hydroxyadamantan-2-yl]-4-(oxolan-2-yl)pyrimidine-5-carboxamide] | 104
CCOc1nc(NC2CC2)ncc1C(=O)N[C@H]1C2CC3CC1C[C@@](O)(C3)C2 [Example 210, 2-(cyclopropylamino)-4-ethoxy-N-[(2r,5s)-5-hydroxytricyclo[3.3.1.13,7]dec-2-yl]pyrimidine-5-carboxamide] | 97.2
O=C(N[C@H]1C2CC3CC1C[C@@](O)(C3)C2)c1cnc(N2CCCSCC2)nc1C1CC1 [Example 43, 4-Cyclopropyl-N-[(2r,5s)-5-hydroxyadamantan-2-yl]-2-(1,4-thiazepan-4-yl)pyrimidine-5-carboxamide] | 99.2
CNc1ncc(C(=O)N[C@H]2C3CC4CC2C[C@@](O)(C4)C3)c(C2CC2)n1 [Example 34, 4-Cyclopropyl-N-[(2r,5s)-5-hydroxyadamantan-2-yl]-2-methylaminopyrimidine-5-carboxamide] | 98
O=C(N[C@H]1C2CC3CC1C[C@@](O)(C3)C2)c1cnc(N2CC(F)(F)C2)nc1C1CCCC1 [Example 146, 4-cyclopentyl-2-(3,3-difluoroazetidin-1-yl)-N-[(2r,5s)-5-hydroxyadamantan-2-yl]pyrimidine-5-carboxamide] | 93.4
O=C(N[C@H]1C2CC3CC1C[C@@](O)(C3)C2)c1cnc(OC2CCC2)nc1C1CC(F)(F)C1 [Example 157] | 87.1
O=C(N[C@H]1C2CC3CC1C[C@@](O)(C3)C2)c1cnc(N2CCSCC2)nc1C1CCCC1 [Example 114, 4-Cyclopentyl-N-[(2s,5r)-5-hydroxyadamantan-2-yl]-2-thiomorpholin-4-ylpyrimidine-5-carboxamide] | 106
